Measurements taken from publication PMC12084297, “Cytoplasmic connexin43-microtubule interactions promote glioblastoma stem-like cell maintenance and tumorigenicity” (Cell Death & Disease, 2025).

Assays:
[1] = test system: Cx43; assay: Cx43 expression in co-IP input, immunoblot, VTC-037 GSCs; format: cell-based, human; settings: 50 μM, 24 h
Procedure: Cells were lysed in RIPA buffer (0.1% sodium dodecyl sulphate, 50 mM Tris pH 7.4, 150 mM NaCl, 1 mM EDTA, 1% Triton X-100, 1% deoxycholic acid, 200 μM Na3VO4, and 1 mM NaF) supplemented with Halt^TM Protease and Phosphatase Inhibitor Cocktail (Thermo Fisher). Lysates were sonicated prior to centrifugation at 4 °C for 20 min at 10,000 x g. Protein concentration was quantified using the DC protein assay (Bio-Rad Laboratories) and a standard curve obtained with increasing concentrations of Bovine Serum Albumin (BSA; Fisher Scientific). Protein samples were normalized to 20 μg total protein per lane and resolved by SDS-PAGE electrophoresis. 4X Bolt LDS sample buffer supplemented with 400 mM DTT (final concentration 1X Bolt LDS with 100 mM DTT) was added to samples before heating at 70 °C for 10 min. […] Membranes were imaged on a ChemiDoc™ imaging system, and analyzed with Image Lab software (Bio-Rad Laboratories). […]
Prior to lysis, cross-linking was completed by incubating cells in DTBP (dimethyl 3,3’-dithiobispropionimidate; 2 mM in PBS) for 30 min at 37 °C followed by a glycine quench (100 mM glycine in PBS) for 15 min at room temperature. […] Protein concentration was quantified using the DC protein assay and a standard curve obtained with increasing concentrations of BSA, and 500 μg of total protein was used per reaction for co-IP. […]

[2] = test system: VTC-001 GSCs; assay: Gliosphere formation assay, VTC-001 GSCs; format: cell-based, human; settings: VTC-001, 10, 50 or 100 μM every other day, 2 weeks
Procedure: GSCs and PDX GBM22 cells were plated as single cell suspension in low-attachment 96-well plates (GSCs: 100–500 cells per well; GBM22 cells: 500–2000 cells per well), using methods similar to those reported previously. Cells were then treated with peptides every other day. 2 weeks later, gliospheres were observed using phase contrast microscopy on a Revolve microscope (Echo Laboratories). The number of gliospheres was then determined, while the gliosphere size was assessed by diameter measurement. To evaluate stem cell frequency in GSCs, gliosphere formation assay was performed with limiting cell dilutions with cells plated at varying densities in low-attachment 96-well plates. Cells were treated with peptides every other day, and after 2 weeks, gliosphere-positive wells were observed and scored using phase contrast microscopy on a Revolve microscope. The stem cell frequency was analyzed using the online data analysis program ELDA (Extreme Limiting Dilution Analysis).

[3] = test system: VTC-037 GSCs; assay: Peptide uptake by confocal Z-stack with WGA, VTC-037 GSCs; format: in vitro ADME, human; settings: 50 μM, 24 h, WGA membrane label

With VFFKGVKDRVKGRSD [JM2] the “Cx43 expression (co-IP input)” value [1] was “does not affect Cx43 expression in GSCs”, the GSC-dependent gliosphere formation [2] was “inhibits VTC-001, VTC-034, and VTC-037 GSC-dependent gliosphere formation in a dose-dependent manner” and the “Gliosphere size (diameter)” value ([2]; n = 4) was “significant decrease in gliosphere size”. The Gliosphere number ([2]; n = 6) was “significant decrease in gliosphere size as assessed by diameter measurement (Fig. 6B), and number” and the “Peptide enrichment within cells (Z-stack 3D projection)” value [3] was “enrichment of JM2 (red) within cells”.
